# Test system: SU-DHL6
# Assay: Inhibition of tumor cell proliferation, CellTiter-Glo, SU-DHL6
# Assay type: cell-based
# Conditions: compound concentration 50 μM, 72 hours
# In short: (§1)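 Cells seeded at 2000-10000 per well, treated immediately (suspension) or after adherence (adherent) and cultured at 37° C, 5% CO2. Viability read by CellTiter-Glo at 72 h as blank-corrected survival rate vs control. Scored at 50 μM compound: survival 60-<90% +, >30-60% ++, ≤30% +++.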
row,SMILES,Inhibitory activity against proliferation (cell survival rate) SU-DHL6
1,O=C1CC(c2ccccc2)CC(=O)C1=CNCCN1CCC(C(=O)N2C(=O)CCC(N3C(=O)c4ccccc4C3=O)C2=O)CC1 (stereo not drawn) [Compound 102],++ (30<survival rate (%)≤60)
2,O=C1CC(c2ccccc2)CC(=O)C1=CNCCN1CCN(CCOC(=O)N2C(=O)CCC(N3C(=O)c4ccccc4C3=O)C2=O)CC1 (stereo not drawn) [Compound 103],+++ (survival rate (%)≤30)
3,O=C1CCC(N2C(=O)c3cccc(OC(=O)OCCOCCN4CCN(CCNC=C5C(=O)CC(c6ccccc6)CC5=O)CC4)c3C2=O)C(=O)N1 (stereo not drawn) [Compound 104],+++ (survival rate (%)≤30)
4,O=C1CCC(N2C(=O)c3cccc(OCC(=O)N4CCN(CCNC=C5C(=O)CC(c6ccccc6)CC5=O)CC4)c3C2=O)C(=O)N1 (stereo not drawn) [Compound 105],+ (60≤survival rate (%)<90)
5,O=C1CCC(N2C(=O)c3cccc(OCCN4CCN(CCNC=C5C(=O)CC(c6ccccc6)CC5=O)CC4)c3C2=O)C(=O)N1 (stereo not drawn) [Compound 106],+ (60≤survival rate (%)<90)
6,O=C1CCC(N2Cc3c(NCCN4CCN(CCNC=C5C(=O)CC(c6ccccc6)CC5=O)CC4)cccc3C2=O)C(=O)N1 (stereo not drawn) [Compound 107],+ (60≤survival rate (%)<90)
7,O=C1CCC(N2C(=O)c3cccc(NCCN4CCN(CCNC=C5C(=O)CC(c6ccccc6)CC5=O)CC4)c3C2=O)C(=O)N1 (stereo not drawn) [Compound 109],+ (60≤survival rate (%)<90)
8,COCCOCCOc1ccccc1C1CC(=O)C(=CNc2cccc3c2CN(C2CCC(=O)NC2=O)C3=O)C(=O)C1 (stereo not drawn) [Compound 110],+ (60≤survival rate (%)<90)

# Test system: RPMI-8226
# Assay: Inhibition of tumor cell proliferation, CellTiter-Glo, RPMI-8226
# Assay type: cell-based
# Conditions: compound concentration 50 μM, 72 hours
# In short: as §1
row,SMILES,Inhibitory activity against proliferation (cell survival rate) RPMI-8226
1,O=C1CC(c2ccccc2)CC(=O)C1=CNCCN1CCC(C(=O)N2C(=O)CCC(N3C(=O)c4ccccc4C3=O)C2=O)CC1 (stereo not drawn) [Compound 102],+++ (survival rate (%)≤30)
2,O=C1CC(c2ccccc2)CC(=O)C1=CNCCN1CCN(CCOC(=O)N2C(=O)CCC(N3C(=O)c4ccccc4C3=O)C2=O)CC1 (stereo not drawn) [Compound 103],+ (60≤survival rate (%)<90)
3,O=C1CCC(N2C(=O)c3cccc(OC(=O)OCCOCCN4CCN(CCNC=C5C(=O)CC(c6ccccc6)CC5=O)CC4)c3C2=O)C(=O)N1 (stereo not drawn) [Compound 104],+++ (survival rate (%)≤30)
4,O=C1CCC(N2C(=O)c3cccc(OCC(=O)N4CCN(CCNC=C5C(=O)CC(c6ccccc6)CC5=O)CC4)c3C2=O)C(=O)N1 (stereo not drawn) [Compound 105],+ (60≤survival rate (%)<90)
5,O=C1CCC(N2C(=O)c3cccc(OCCN4CCN(CCNC=C5C(=O)CC(c6ccccc6)CC5=O)CC4)c3C2=O)C(=O)N1 (stereo not drawn) [Compound 106],+ (60≤survival rate (%)<90)
6,O=C1CCC(N2Cc3c(NCCN4CCN(CCNC=C5C(=O)CC(c6ccccc6)CC5=O)CC4)cccc3C2=O)C(=O)N1 (stereo not drawn) [Compound 107],+++ (survival rate (%)≤30)
7,O=C1CCC(N2C(=O)c3cccc(NCCN4CCN(CCNC=C5C(=O)CC(c6ccccc6)CC5=O)CC4)c3C2=O)C(=O)N1 (stereo not drawn) [Compound 109],+++ (survival rate (%)≤30)
8,COCCOCCOc1ccccc1C1CC(=O)C(=CNc2cccc3c2CN(C2CCC(=O)NC2=O)C3=O)C(=O)C1 (stereo not drawn) [Compound 110],++ (30<survival rate (%)≤60)

# Test system: K562
# Assay: Inhibition of tumor cell proliferation, CellTiter-Glo, K562
# Assay type: cell-based
# Conditions: compound concentration 50 μM, 72 hours
# In short: as §1
row,SMILES,Inhibitory activity against proliferation (cell survival rate) K562
1,O=C1CC(c2ccccc2)CC(=O)C1=CNCCN1CCC(C(=O)N2C(=O)CCC(N3C(=O)c4ccccc4C3=O)C2=O)CC1 (stereo not drawn) [Compound 102],+++ (survival rate (%)≤30)
2,O=C1CC(c2ccccc2)CC(=O)C1=CNCCN1CCN(CCOC(=O)N2C(=O)CCC(N3C(=O)c4ccccc4C3=O)C2=O)CC1 (stereo not drawn) [Compound 103],+ (60≤survival rate (%)<90)
3,O=C1CCC(N2C(=O)c3cccc(OC(=O)OCCOCCN4CCN(CCNC=C5C(=O)CC(c6ccccc6)CC5=O)CC4)c3C2=O)C(=O)N1 (stereo not drawn) [Compound 104],+++ (survival rate (%)≤30)
4,O=C1CCC(N2C(=O)c3cccc(OCC(=O)N4CCN(CCNC=C5C(=O)CC(c6ccccc6)CC5=O)CC4)c3C2=O)C(=O)N1 (stereo not drawn) [Compound 105],+ (60≤survival rate (%)<90)
5,O=C1CCC(N2C(=O)c3cccc(OCCN4CCN(CCNC=C5C(=O)CC(c6ccccc6)CC5=O)CC4)c3C2=O)C(=O)N1 (stereo not drawn) [Compound 106],+ (60≤survival rate (%)<90)
6,O=C1CCC(N2Cc3c(NCCN4CCN(CCNC=C5C(=O)CC(c6ccccc6)CC5=O)CC4)cccc3C2=O)C(=O)N1 (stereo not drawn) [Compound 107],+++ (survival rate (%)≤30)
7,O=C1CCC(N2C(=O)c3cccc(NCCN4CCN(CCNC=C5C(=O)CC(c6ccccc6)CC5=O)CC4)c3C2=O)C(=O)N1 (stereo not drawn) [Compound 109],++ (30<survival rate (%)≤60)
8,COCCOCCOc1ccccc1C1CC(=O)C(=CNc2cccc3c2CN(C2CCC(=O)NC2=O)C3=O)C(=O)C1 (stereo not drawn) [Compound 110],++ (30<survival rate (%)≤60)

# Test system: A549
# Assay: Inhibition of tumor cell proliferation, CellTiter-Glo, A549
# Assay type: cell-based
# Conditions: compound concentration 50 μM, 72 hours
# In short: as §1
row,SMILES,Inhibitory activity against proliferation (cell survival rate) A549
1,O=C1CC(c2ccccc2)CC(=O)C1=CNCCN1CCC(C(=O)N2C(=O)CCC(N3C(=O)c4ccccc4C3=O)C2=O)CC1 (stereo not drawn) [Compound 102],+++ (survival rate (%)≤30)
2,O=C1CC(c2ccccc2)CC(=O)C1=CNCCN1CCN(CCOC(=O)N2C(=O)CCC(N3C(=O)c4ccccc4C3=O)C2=O)CC1 (stereo not drawn) [Compound 103],+++ (survival rate (%)≤30)
3,O=C1CCC(N2C(=O)c3cccc(OC(=O)OCCOCCN4CCN(CCNC=C5C(=O)CC(c6ccccc6)CC5=O)CC4)c3C2=O)C(=O)N1 (stereo not drawn) [Compound 104],+++ (survival rate (%)≤30)
4,O=C1CCC(N2C(=O)c3cccc(OCC(=O)N4CCN(CCNC=C5C(=O)CC(c6ccccc6)CC5=O)CC4)c3C2=O)C(=O)N1 (stereo not drawn) [Compound 105],+++ (survival rate (%)≤30)
5,O=C1CCC(N2C(=O)c3cccc(OCCN4CCN(CCNC=C5C(=O)CC(c6ccccc6)CC5=O)CC4)c3C2=O)C(=O)N1 (stereo not drawn) [Compound 106],+++ (survival rate (%)≤30)
6,O=C1CCC(N2Cc3c(NCCN4CCN(CCNC=C5C(=O)CC(c6ccccc6)CC5=O)CC4)cccc3C2=O)C(=O)N1 (stereo not drawn) [Compound 107],+++ (survival rate (%)≤30)
7,O=C1CCC(N2C(=O)c3cccc(NCCN4CCN(CCNC=C5C(=O)CC(c6ccccc6)CC5=O)CC4)c3C2=O)C(=O)N1 (stereo not drawn) [Compound 109],++ (30<survival rate (%)≤60)
8,COCCOCCOc1ccccc1C1CC(=O)C(=CNc2cccc3c2CN(C2CCC(=O)NC2=O)C3=O)C(=O)C1 (stereo not drawn) [Compound 110],++ (30<survival rate (%)≤60)

# Test system: MDA-MB-453
# Assay: Inhibition of tumor cell proliferation, CellTiter-Glo, MDA-MB-453
# Assay type: cell-based
# Conditions: compound concentration 50 μM, 72 hours
# In short: as §1
row,SMILES,Inhibitory activity against proliferation (cell survival rate) MDA-MB-453
1,O=C1CC(c2ccccc2)CC(=O)C1=CNCCN1CCC(C(=O)N2C(=O)CCC(N3C(=O)c4ccccc4C3=O)C2=O)CC1 (stereo not drawn) [Compound 102],+++ (survival rate (%)≤30)
2,O=C1CC(c2ccccc2)CC(=O)C1=CNCCN1CCN(CCOC(=O)N2C(=O)CCC(N3C(=O)c4ccccc4C3=O)C2=O)CC1 (stereo not drawn) [Compound 103],+++ (survival rate (%)≤30)
3,O=C1CCC(N2C(=O)c3cccc(OC(=O)OCCOCCN4CCN(CCNC=C5C(=O)CC(c6ccccc6)CC5=O)CC4)c3C2=O)C(=O)N1 (stereo not drawn) [Compound 104],+++ (survival rate (%)≤30)
4,O=C1CCC(N2C(=O)c3cccc(OCC(=O)N4CCN(CCNC=C5C(=O)CC(c6ccccc6)CC5=O)CC4)c3C2=O)C(=O)N1 (stereo not drawn) [Compound 105],++ (30<survival rate (%)≤60)
5,O=C1CCC(N2C(=O)c3cccc(OCCN4CCN(CCNC=C5C(=O)CC(c6ccccc6)CC5=O)CC4)c3C2=O)C(=O)N1 (stereo not drawn) [Compound 106],++ (30<survival rate (%)≤60)
6,O=C1CCC(N2Cc3c(NCCN4CCN(CCNC=C5C(=O)CC(c6ccccc6)CC5=O)CC4)cccc3C2=O)C(=O)N1 (stereo not drawn) [Compound 107],++ (30<survival rate (%)≤60)
7,O=C1CCC(N2C(=O)c3cccc(NCCN4CCN(CCNC=C5C(=O)CC(c6ccccc6)CC5=O)CC4)c3C2=O)C(=O)N1 (stereo not drawn) [Compound 109],+ (60≤survival rate (%)<90)
8,COCCOCCOc1ccccc1C1CC(=O)C(=CNc2cccc3c2CN(C2CCC(=O)NC2=O)C3=O)C(=O)C1 (stereo not drawn) [Compound 110],+ (60≤survival rate (%)<90)

# Test system: BxPC-3
# Assay: Inhibition of tumor cell proliferation, CellTiter-Glo, BxPC-3
# Assay type: cell-based
# Conditions: compound concentration 50 μM, 72 hours
# In short: as §1
row,SMILES,Inhibitory activity against proliferation (cell survival rate) BxPC-3
1,O=C1CC(c2ccccc2)CC(=O)C1=CNCCN1CCC(C(=O)N2C(=O)CCC(N3C(=O)c4ccccc4C3=O)C2=O)CC1 (stereo not drawn) [Compound 102],+ (60≤survival rate (%)<90)
2,O=C1CC(c2ccccc2)CC(=O)C1=CNCCN1CCN(CCOC(=O)N2C(=O)CCC(N3C(=O)c4ccccc4C3=O)C2=O)CC1 (stereo not drawn) [Compound 103],+ (60≤survival rate (%)<90)
3,O=C1CCC(N2C(=O)c3cccc(OC(=O)OCCOCCN4CCN(CCNC=C5C(=O)CC(c6ccccc6)CC5=O)CC4)c3C2=O)C(=O)N1 (stereo not drawn) [Compound 104],++ (30<survival rate (%)≤60)
4,O=C1CCC(N2C(=O)c3cccc(OCC(=O)N4CCN(CCNC=C5C(=O)CC(c6ccccc6)CC5=O)CC4)c3C2=O)C(=O)N1 (stereo not drawn) [Compound 105],++ (30<survival rate (%)≤60)
5,O=C1CCC(N2C(=O)c3cccc(OCCN4CCN(CCNC=C5C(=O)CC(c6ccccc6)CC5=O)CC4)c3C2=O)C(=O)N1 (stereo not drawn) [Compound 106],++ (30<survival rate (%)≤60)
6,O=C1CCC(N2Cc3c(NCCN4CCN(CCNC=C5C(=O)CC(c6ccccc6)CC5=O)CC4)cccc3C2=O)C(=O)N1 (stereo not drawn) [Compound 107],+ (60≤survival rate (%)<90)
7,O=C1CCC(N2C(=O)c3cccc(NCCN4CCN(CCNC=C5C(=O)CC(c6ccccc6)CC5=O)CC4)c3C2=O)C(=O)N1 (stereo not drawn) [Compound 109],++ (30<survival rate (%)≤60)
8,COCCOCCOc1ccccc1C1CC(=O)C(=CNc2cccc3c2CN(C2CCC(=O)NC2=O)C3=O)C(=O)C1 (stereo not drawn) [Compound 110],++ (30<survival rate (%)≤60)
